Patent US7074765B2, “Synthetic peptide analogs of Arg-Pro-Pro-Gly-Phe as selective inhibitors of thrombin and thrombin activation of protease activated receptors 1 and 4” (The Regents of the University of Michigan, priority 2003, dated 2006)

What was measured:
[1] = tested on: platelets in platelet-rich plasma; assay: γ-thrombin-induced platelet aggregation in platelet-rich plasma; type: cell-based, human
Experimental: Fresh whole blood was collected and mixed with 0.013 M sodium citrate and platelet-rich plasma was prepared according to the method of Meloni et al., J. Biol. Chem. 266, 6786 (1991). Platelet-rich plasma with a normalized platelet count between 2–2.5×10^8 platelets/ml was added to a cuvette of an aggregometer (Chronlog Corp., Havertown, Pa.), standardized using the protocol of Meloni et al., supra. Peptides to be examined were added to the cuvette and the mixture stabilized for a few moments. Once the baseline was stabilized, γ-thrombin (10–70 nM) (Haematologic Technologies, Essex Junction, Vt.) was added to determine the minimal concentration of the agonist necessary to achieve full platelet aggregation. All investigations with peptides were performed using threshold concentrations of γ-thrombin. Aggregation was allowed to proceed for 5 minutes before stopping. When ADP-induced platelet aggregation studies were performed, 1–5 μM ADP (Sigma) was added to the cuvette containing platelet-rich plasma.

[2] = target: T1, recombinant protease activated receptor 1 extracellular domain (rPAR1EC) (Homo sapiens, UniProt P25116); assay: Inhibition of RPPGF-biotin binding to rPAR1EC; settings: 5 mM peptide, 50 μM RPPGF-biotin (FIG. 7); listed in decreasing order
T1 construct: A portion of the extracellular domain of human PAR1 (Ala^26-Ser^99) (rPAR1EC) was expressed in Escherichia coli; His10-DDDDK (pET19b) (N); made in house; host or cells: E. coli BL21(DE3), pET19b
T1 sequence (P25116 26-99): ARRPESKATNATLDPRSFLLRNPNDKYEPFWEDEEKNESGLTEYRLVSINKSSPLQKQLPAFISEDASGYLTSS

[3] = target: T2, thrombocytin cleavage of recombinant human PAR1 extracellular domain (Homo sapiens, UniProt P25116); assay: Inhibition of thrombocytin-induced cleavage of rPAR1EC; type: biochemical; settings: 16.7 nM thrombocytin, 45 min, 37° C.; below concentration that blocks the enzyme's proteolytic activity
T2 construct: A portion of the extracellular domain of human PAR1 (Ala^26-Ser^99) (rPAR1EC) was expressed in Escherichia coli; His10-DDDDK (pET19b) (N); made in house; host or cells: E. coli BL21(DE3), pET19b (rPAR1EC)
T2 sequence (P25116 26-99): T1 sequence (P25116 26-99)
Experimental: Thrombocytin is a snake venom enzyme that activates platelets by cleaving PAR1 at the thrombin cleavage site (Santos et al., FEBS Letters. 18, 3570–3577 (2000)). […] The ability of MAP4-rOicPGF to block thrombocytin cleavage of rPAR1EC was performed as follows. One μg of rPAR1EC in 0.01 mM Tris-HCL, 0.2 M NaCl, pH 8.0 was incubated at 37° C. for 15 min or 45 min with 1 nM of α-thrombin or 0.5 μg/mL thrombocytin (16.7 nM), respectively, in the absence or presence of 0.025 to 1 mM MAP4-rOicPGF. The reaction mixture was separated on SDS-PAGE and stained with Coomassie Brilliant Blue. The cleaved gel images were scanned using the software Scion Image, ScionCorp, Frederick, Md.

α-thrombin = α-thrombin (Homo sapiens, UniProt P00734); assay: α-thrombin hydrolysis of chromogenic substrate Sar-Pro-Arg-pNA; type: biochemical; settings: 1 nM α-thrombin; 0–0.5 mM peptide
Experimental: FIG. 10 examines the ability of MAP4-TH146 (β-Ala-Lys-2Lys-4(D-Arg-Oic-Pro-Gly-Phe)) to block thrombin or thrombocytin-induced proteolysis of recombinant extracellular fragment of human PAR1 (rPAR1EC). In the upper Panels, 1 μg of rPAR1EC in 10 mM Tris-HCI, 200 mM NaCl, pH 8.0 was incubated at 37° C. for 15 min or 45 min with 1 nM α-thrombin or 0.5 μg/ml (16.7 nM) thrombocytin, respectively, in the absence or presence of increasing concentrations of MAP4-TH146 (0.05 to 1.0 mM)). In the middle Panel, the ability of α-thrombin (1 nM) to hydrolyze the chromogenic substrate Sar-Pro-Arg-pNA in the presence or absence of 0–0.5 mM MAP4-TH146 was determined. In the bottom Panel, the ability of thrombocytin (16.7 nM) to hydrolyze 1 mM H-D-Phe-Pip-Arg-paranitroanilide (S2238) in the presence or absence of 0–1.0 mM MAP4-TH146 was determined. […] Alternatively, in the bottom Panel, MAP4-TH146 inhibits thrombocytin proteolysis of rPAR1EC at concentrations below that necessary to block the proteolytic activity of the enzyme.

VCaP cells = assay: α-thrombin-induced intracellular calcium mobilization in VCaP cells; type: cell-based; settings: 2 nM α-thrombin
Experimental: (§1) FIG. 13 examines the influence of MAP4-TH146 on thrombin-induced calcium mobilization in two prostate cancer cell lines that functionally express PAR 1. In Panel A, the influence of MAP4-TH146 on 2 nM α-thrombin-induced intracellular calcium mobilization in VCaP cells. Calcium flux is abolished by […]. At 6.25 μM MAP4-TH146, there is full recovery of thrombin-induced calcium flux. In Panel B, the influence of MAP4-TH146 on 2 nM α-thrombin-induced intracellular calcium mobilization in PC3 cells. Calcium flux is abolished by 200 μM MAP4-TH146. At 1.56 μM MAP4-TH146, calcium flux recovers.

PC3 cells = assay: α-thrombin-induced intracellular calcium mobilization in PC3 cells; type: cell-based; settings: 2 nM α-thrombin
Experimental: as §1

What does the source list for “β-Ala-Lys-2Lys-4(D-Arg-Oic-Pro-Gly-Phe) [MAP4-rOicPGF]”?
concentration that abolished γ-thrombin-induced platelet aggregation ([1]; 40 nM γ-thrombin): ≥ 0.0125 mM; effect on γ-thrombin-induced platelet aggregation ([1]; 0.006 mM peptide, 40 nM γ-thrombin): returned to pretreatment levels; effect on γ-thrombin-induced platelet aggregation ([1]; 0.05 mM peptide, 40 nM γ-thrombin): completely abolished; Concentration of Peptide [mM] That Gives 100% Inhibition ([1]; minimal concentration that blocked γ-thrombin-induced platelet aggregation in platelet-rich plasma): 0.019 mM; blocking of RPPGF-biotin binding to rPAR1EC by peptides [2]: blocked; concentration that blocks thrombocytin cleavage of rPAR1EC [3]: 0.2 mM; effect on α-thrombin hydrolysis of Sar-Pro-Arg-pNA (α-thrombin): directly blocking α-thrombin's proteolytic activity; effect on thrombin-induced calcium flux (VCaP cells; 6.25 μM peptide): full recovery; effect on thrombin-induced calcium flux (VCaP cells; 200 (unit not given) peptide): abolished; effect on thrombin-induced calcium flux (PC3 cells; 1.56 μM peptide): recovers; effect on thrombin-induced calcium flux (PC3 cells; 200 μM peptide): abolished
